Experimental data published in patent US11242351B2, “Tricyclic inhibitors of the BCL6 BTB domain protein-protein interaction and uses thereof” (priority 2017, dated 2022).
Read-outs that look alike come from different tables or passages of the source.

Legend:
[1] = target: BCL6 BTB domain (biotin-thrombin-BCL6 amino acids 1-129) (Homo sapiens (Human), UniProt P41182); test: Surface Plasmon Resonance (SPR) assay; assay type: binding; conditions: Biacore T200, single cycle kinetic analysis
Description: Surface Plasmon Resonance (SPR) Assay
SPR studies were performed using a Biacore™ T200 instrument (GE Health Sciences Inc.). […] The Biacore flow rate was set at 100 μl/min. […] Curve fitting and KD calculations were performed with the Biacore T200 Evaluation software (GE Health Sciences Inc).

[2] = system: BCL6 reporter construct in SuDHL4-3×BCL6-TK-Luc cells; test: Cell-based luciferase assay (BCL6 reporter); conditions: 48 h, read-out: Luc IC50
Description: Cell-Based Luciferase Assay:
A BCL6 reporter construct containing three copies of the consensus BCL6 binding site, the TK promoter, and the firefly luciferase gene was stably expressed in SuDHL4 cells after lentivirus infection and selection with Blasticidin. SuDHL4-3×BCL6-TK-Luc cells were seeded into a Viewplate 384-well assay dish at 15,000 cells/well in […] (Alpha-MEM high glucose containing 10% FBS, 25 mM HEPES, […] GlutaMAX, 100 µg/mL Normocin, and […] Gentamycin, Invitrogen). A HP D300 digital dispenser was used to dose cells with DMSO or test compounds across a 10-point range of concentrations (high dose of 10 μM), and cultures were grown in a humidified 5% CO2 incubator at 37° C. After two days, plates were removed from the incubator and equilibrated to room temperature. An equal volume of neolite reporter gene assay reagent was added to each well, and samples were processed according to the manufacturer's instructions (Perkin Elmer). The luminescent signal was measured using an Envision plate reader equipped with a US-Luminescence detector.

Karpas422 cells = test: Tumor cell growth inhibition assay; assay type: cell-based; conditions: Homo sapiens, KARPAS-422, 144 h, read-out: GI Karpas EC50
Description: Tumor Cell Growth Inhibition Assay:
Karpas422 cells were seeded into a 96-well plate at 2,000 cells/well in 150 μl medium (Alpha-MEM containing 10% FBS, […] Normocin, and […] Gentamycin, Invitrogen). A HP D300 digital dispenser was used to dose cells with DMSO or test compounds across a 10-point range of concentrations (high dose of 5 μM), and cultures were grown in a humidified 5% CO2 incubator at 37° C. After six days, plates were removed from incubator and equilibrated to room temperature. An equal volume of ATPlite assay reagent was added to each well, and samples were processed according to the manufacturer's instructions (Perkin Elmer). The luminescent signal was measured using an Envision plate reader equipped with a US-Luminescence detector.

[3] = SuDHL4-3×BCL6-TK-Luc cells, two days
[4] = Karpas422 cells, six days, ATPlite

Structure (SMILES): CCN1CCN(c2cc(NC(=O)Cn3cc(-c4cc(C(N)=O)c(O)c5c4OCO5)c4c(=O)n5c(nc43)CCC5)c(Cl)c(F)n2)[C@@H](C)C1 [I-86, (S)-7-(1-(2-((3-chloro-6-(4-ethyl-2-methyl-piperazin-1-yl)-2-fluoropyridin-4-yl)amino)-2-oxoethyl)-4-oxo-4,6,7,8-tetrahydro-1H-dipyrrolo[1,2-a:2′,3′-d]pyrimidin-3-yl)-4-hydroxybenzo[d][1,3] dioxole-5-carboxamide]
- Kd [1]: 0.81 nM
- IC50 [2]: 7.85 nM
- EC50 (Karpas422 cells): 6.88 nM

Structure (SMILES): CC1CN(C)CC(C)N1c1cc(NC(=O)Cn2cc(-c3cc(C(N)=O)c(O)c(F)c3F)c3c(=O)n4c(nc32)CCC4)c(Cl)cn1 (stereo not drawn) [I-21, 5-(1-(2-((5-chloro-2-(2,4,6-trimethyl-piperazin-1-yl)pyridin-4-yl)amino)-2-oxoethyl)-4-oxo-4,6,7,8-tetrahydro-1H-dipyrrolo[1,2-a:2′,3′-d]pyrimidin-3-yl)-3,4-difluoro-2-hydroxy-benzamide]
- Kd [1]: 25.6 nM
- IC50 [2]: 355 nM
- EC50 (Karpas422 cells): 329 nM

Structure (SMILES): CCN1CCN(c2cc(NC(=O)Cn3cc(-c4cc(C(N)=O)c(O)c5c4OCO5)c4c(=O)n5c(nc43)CC(C)C5)c(Cl)c(F)n2)[C@@H](C)C1 (stereo partly drawn) [I-89, 7-(1-(2-((3-chloro-6-((S)-4-ethyl-2-methyl-piperazin-1-yl)-2-fluoropyridin-4-yl)amino)-2-oxoethyl)-7-methyl-4-oxo-4,6,7,8-tetrahydro-1H-dipyrrolo[1,2-a:2′,3′-d]pyrimidin-3-yl)-4-hydroxybenzo[d][1,3] dioxole-5-carboxamide]
- Kd [1]: 1.36 nM
- IC50 [2, 3]: 12.9 nM
- EC50 (Karpas422 cells; [4]): 11.1 nM

Structure (SMILES): C[C@H]1CNCCN1c1cc(NC(=O)Cn2cc(-c3cc(C(N)=O)c(O)c4c3OCO4)c3c(=O)n4c(nc32)CCC4)c(Cl)c(F)n1 [I-90, (S)-7-(1-(2-((3-chloro-2-fluoro-6-(2-methyl-piperazin-1-yl)pyridin-4-yl)amino)-2-oxo-ethyl)-4-oxo-4,6,7,8-tetrahydro-1H-dipyrrolo [1,2-a:2′,3′-d]pyrimidin-3-yl)-4-hydroxybenzo [d][1,3]dioxole-5-carboxamide]
- Kd [1]: 0.7 nM
- IC50 [2, 3]: 23.5 nM
- EC50 (Karpas422 cells; [4]): 22 nM

Structure (SMILES): CCOCCN1CCN(c2cc(NC(=O)Cn3cc(-c4cc(C(N)=O)c(O)c(OC)c4OC)c4c(=O)n5c(nc43)CCC5)c(Cl)c(F)n2)[C@@H](C)C1 [I-71, (S)-5-(1-(2-((3-chloro-6-(4-(2-ethoxyethyl)-2-methylpiperazin-1-yl)-2-fluoropyridin-4-yl)amino)-2-oxo-ethyl)-4-oxo-4,6,7,8-tetrahydro-1H-dipyrrolo [1,2-a:2′,3′-d]pyrimidin-3-yl)-2-hydroxy-3,4-dimethoxybenzamide]
- Kd [1]: 181 nM
- IC50 [2, 3]: 1640 nM
- EC50 (Karpas422 cells; [4]): 1370 nM

Structure (SMILES): COc1c(O)c(C(N)=O)cc(-c2cn(CC(=O)Nc3cc(N4CCN(C)C[C@@H]4C)nc(F)c3Cl)c3nc4n(c(=O)c23)CCC4)c1F [I-15, (S)-5-(1-(2-((3-chloro-6-(2,4-dimethylpiperazin-1-yl)-2-fluoropyridin-4-yl)amino)-2-oxoethyl)-4-oxo-4,6,7,8-tetrahydro-1H-dipyrrolo[1,2-a:2′,3′-d]pyrimidin-3-yl)-4-fluoro-2-hydroxy-3-methoxybenzamide]
- Kd [1]: 34.1 nM
- IC50 [2]: 374 nM

Structure (SMILES): COc1c(O)c(C(N)=O)cc(-c2cn(CC(=O)Nc3cc(N4CCOC[C@@H]4C)nc(F)c3Cl)c3nc4n(c(=O)c23)CCC4)c1F [I-16, (S)-5-(1-(2-((3-chloro-2-fluoro-6-(3-methyl-morpholino)pyridin-4-yl)amino)-2oxoethyl)-4-oxo-4,6,7,8-tetra-hydro-1H-dipyrrolo [1,2-a:2′,3′-d]pyri-midin-3-yl)-4-fluoro-2-hydroxy-3-methoxy-benzamide]
- IC50 [2]: 510 nM
